Measurements published in patent US20250163062A1, “WNT PATHWAY INHIBITOR COMPOUNDS” (ADLAI NORTYE BIOPHARMA CO., LTD., priority 2022, published 2025).

Key:
Type in all cases: cell-based
HepG2 = test: Proliferation inhibition test, Wnt mutant cell line HepG2; conditions: Homo sapiens, HepG2, 96 h, HepG2, 96 h culture with compound; read-out: Antiproliferation IC50 HepG2
Excerpt: (§1) The cell lines used in the experiment are Colo205, H929, HepG2, and DU4475, which have sustained activation of the Wnt pathway and whose proliferation is Wnt pathway-dependent. On the other hand, RKO cell line, in which normally the Wnt pathway is not activated and whose proliferation is not Wnt pathway-dependent, was used as a control cell line. This was done to determine whether the inhibitory effect of the compound of the present disclosure on Wnt-dependent proliferation is due to other nonspecific toxicity.
(§2) Colo205, H929, DU4475, HepG2 and RKO cell lines cultured in their respective culture media were treated in the logarithmic growth phase, and the cells were collected and prepared into a uniform cell suspension of known concentration, and then added to a 96-well cell culture plate so that each well contained 1000-4000 cells. Place in a 5% CO2 cell culture incubator and culture at 37° C. for 20-24 h. On the second day, add the completely dissolved, 3-fold gradient dilution compound to each cell culture well to make the final maximum concentration in the cell culture well 10 uM, and continue to culture for 96 h. This test uses Promega's cell activity detection test for detection. The more the cells proliferate, the stronger the final signal intensity. The detection instrument is SpectraMax, full wavelength mode. The wells with only DMSO added were used as positive control wells, and the wells without cells inoculated were used as negative control wells.

[1] = test system: Colo205-LUC-TCF/LEF reporter gene; test: Colo205-LUC-TCF/LEF M1 reporter cell line luciferase inhibition; conditions: 4 h, 4 hours incubation, firefly luciferase signal
Protocol: Colo205 cell line (Cell Bank of Chinese Academy of Sciences, Cat #TCHul02) was purchased from the Cell Bank of Chinese Academy of Sciences. After expansion and subculture, during the exponential growth phase, luciferase reporter plasmid (Promega) driven by TCF/LEF transcription factor was transfected by lipo3000 liposome transfection. The plasmid carries a resistance gene for resistance screening. Transfection was carried out in 10 cm culture dishes using conventional complete medium without resistance. After 2 days, the medium with resistance was replaced, and the culture was continued. After that, the medium with resistance was replaced every 2 days, and the suspended cells were discarded. The original medium was centrifuged to remove cells and debris and retained as an adaptive medium. When the cells covered the culture dish, the cells were digested, counted, and passaged in a 96-well plate, so that the average number of cells contained in each well was 1.5/well, and the adaptive medium was used for passage. The rest of the cells were frozen. After passage, culture for 4 hours to allow the cells to adhere to the wall, and then observe the number of cells in each well under a microscope. Wells with only 1 cell per well were labeled as monoclonal wells. Afterwards, normal culture was performed, and the culture medium was replaced every 2 days, and observed. There are wells where the monoclonal cells continue to grow in the early stage, and they are labeled twice, and can be replaced with normal medium with resistance. When a monoclonal well was overgrown with a 96-well plate, it is digested and passaged to a 24-well culture plate. After the 24-well plate is overgrown, it is passaged to a 96-well plate and a 6-well plate. The cells in a 96-well plate are at least 6 wells, of which 3 wells were added with known Wnt inhibitors, and the other 3 wells were not treated. After 24 hours, the cells in the 96-well plate were added with a fluorescence detection reagent to detect the fluorescence intensity. Cell lines with fluorescent expression when not treated and decreased fluorescent light after inhibition were selected and further cultured. The Colo205-LUC-TCF/LEF-M1 cell line is one of the cell lines screened above. Its growth curve, cell shape, and cell growth state are similar to those of the original Colo205 cells, and the ratio of the fluorescent signals of the inhibitor-treated and untreated cells is the largest among all cell lines, and the ratio can reach 4-5 times when inhibited at 4 hours, which was completely suitable for the screening of Wnt inhibitors in the later stage.
The Colo205-LUC-TCF/LEF M1 cell line is a reporter tool cell stably transfected with the pGL4.49-LUC2-TCF/LEF vector. The β-catenin Wnt pathway is continuously activated. After adding the inhibitor, the Wnt pathway is inhibited. The expression of firefly luciferase regulated by the TCF/LEF cis-element decreased, and after adding the detection substrate, the detected light signal decreased accordingly, so as to detect the inhibitory effect of the compound.
To a 96-well cell culture plate, add 100 uL of the compound with a maximum concentration of 20 uM to each well, and make a 3-fold serial dilution of the compound concentration. Then 10,000 colo205 cells stably transfected with the reporter gene and 100 uL medium were inoculated into each well, and corresponding positive and negative control wells were made at the same time. Put the cells in a 5% CO2 incubator and incubate at 37° C. for 4 hours. After 4 hours, remove the culture medium, add 100 μL of reagent (Promega) containing the corresponding firefly luciferase substrate to each well, and measure the activity of luciferase reporter gene. Luminescence intensity was read with SpectraMax in full wavelength mode. […]

H929 = test: Proliferation inhibition test, Wnt mutant cell line H929; conditions: Homo sapiens, NCI-H929, 96 h, H929, 96 h culture with compound; read-out: Antiproliferation IC50 H929
Excerpt: as §1, §2

DU4475 = test: Proliferation inhibition test, Wnt mutant cell line DU4475; conditions: Homo sapiens, DU-4475, 96 h, DU4475, 96 h culture with compound; read-out: Antiproliferation IC50 DU4475
Excerpt: as §1, §2

RKO = test: Proliferation inhibition test, non-Wnt mutant control cell line RKO; conditions: Homo sapiens; RKO (Wnt pathway not activated, control), 96 h culture, maximum concentration 10 uM; read-out: Antiproliferation IC50 RKO
Excerpt: as §1, §2

Colo205 = test: Proliferation inhibition test, Wnt mutant cell line Colo205; conditions: Homo sapiens, COLO 205, 96 h, Colo205, 96 h culture with compound; read-out: Antiproliferation IC50 Colo205
Excerpt: as §1, §2

For Cc1nc(C(F)(F)F)ncc1Oc1ncc(CNc2nc3c4c(n2)N(C)[C@@](C)(CO)C(=O)N4CCC3)cc1F [Compound 28], the IC50 (HepG2) was 61.3 nM, the IC50 [1] was 27.4 nM and the IC50 (H929) was 126 nM. For the same compound, the IC50 (DU4475) was 16.8 nM, the IC50 (RKO) was > 10000 nM and the IC50 (Colo205) was 25.7 nM.
